Several values for one entry are separate records, joined by “and”; a condition that tells them apart may be missing. Equal values may be shown once. Read-outs that look alike come from different tables or passages of the source. Marks after values point to notes of the source that are not given here.
Tests used:
[1] = system: porcine skin; experiment: Skin transport of 3H-Mannitol in Franz diffusion cell; assay type: in vitro ADME
Description: FIG. 1 is a schematic of the skin transport experiment set-up and analysis. Porcine skin was loaded into the Franz diffusion cell (FDC) with the stratum corneum (SC) facing up. Skin was incubated in contact with 3H-labeled drug dissolved in donor solution for 24 hrs, at 37° C., with stirring. After 24 hrs the donor solution was removed and skin thoroughly washed. The SC was separated from the epidermis by tape stripping. Ten tape strips were applied, each tape corresponding to 1 “layer” of SC. Ten tape strips were assumed to remove the entire SC. Epidermis was separated from dermis using a razor blade. Acceptor solution was collected, and drug transport into various tissue layers was quantified by scintillation counter.
3H-labeled Mannitol and Cefadroxil were obtained from American Radiolabeled Chemicals, Inc. and Moravek, respectively. FDCs were used to assess the transport enhancement of ionic liquids using a previously established protocol. Karande, et al., “Discovery of transdermal penetration enhancers by high-throughput screening”, Nat Biotechnol, 22(2): 192-7 (2004). Briefly, the acceptor chamber was filled with degassed PBS and a small stir bar added. Thawed porcine skin was clamped in place between the acceptor and donor chambers with the SC facing up. Care was taken to ensure no air bubbles resided in the acceptor chamber. Ionic liquids or PBS (control) were spiked with 3H-labeled drug (Mannitol and Cefadroxil) to a final concentration of 10 μCi/ml. 300 μL of donor solution was added to the donor chamber and incubated in contact with the SC for 24 hr, at 37° C., with stirring.
After 24 hr, the donor solution was removed, and the skin was thoroughly washed and dried.
SC was separated from epidermis by tape stripping. Ten tape strips were performed in an identical fashion, with each tape corresponding to 1 SC “layer”. Ten strips were assumed to remove the majority of the SC. Epidermis was separated from dermis with a razor blade, and the acceptor solution was collected from the acceptor chamber. Samples from each tissue layer and acceptor solution were dissolved in Soluble (Perkin Elmer, Waltham, MA) overnight and the concentration of radiolabeled solute was measured using a scintillation counter (Packard Tri-Carb 2100 TR, Meriden, CT).

[2] = Density (volumetric flask and balance); assay type: physicochemical
Description: (§1) Determinations of conductivity were made on an ION450 benchtop meter (Radiometer Analytical) with a 2-pole electrode designed for use in viscous liquids (Radiometer Analytical CDC241-9) and calibrated with KCl. Conductivity was measured three times per sample on stirred 3 mL volumes of neat IL at 25° C. Density was measured three times per IL using a 1 mL volumetric flask and an analytical balance.

[3] = Conductivity of neat IL; assay type: physicochemical
Description: as §1

[4] = Viscosity (Viscolab 3000 viscometer); assay type: physicochemical
Description: Viscosity was measured on 1 mL samples with a Viscolab 3000 viscometer (Cambridge Viscosity, Medford, MA). […] Low-temperature differential scanning calorimetry (DSC) was performed on a DSC882e instrument (Mettler-Toledo Inc., Columbus, Ohio) under N2 atmosphere over two complete scans of a temperature range of −60 to 120° C. with a ramp rate of 10° C. per minute and a sample size of 18-21 mg in an aluminum crucible.

[5] = Calculations of molarity and ionic strength; assay type: physicochemical; conditions: neat IL, Table 5
[6] = Determination of lipophilicity (octanol/water distribution by UV absorbance); assay type: physicochemical; conditions: for percent in octanol: after extraction with water
Description: A 250 mL volume of n-octanol was shaken with 100 mL of ddH2O and left overnight. […]
The absorption of the octanol layer and water layers were measured and compared with the absorbance of the stock solutions. Measurements were repeated three times and the distribution coefficients were reported as the average. The percent of IL in octanol was calculated as the absorbance of the octanol layer after extraction divided by the absorbance of IL in octanol before extraction. The water/octanol distribution coefficient was calculated as the logarithm of the percent of IL in octanol divided by the percent of IL in water.

[7] = system: P. aeruginosa (Pseudomonas) biofilm; conditions: neat IL
[8] = system: S. enterica (Salmonella) biofilm; conditions: neat IL
[9] = system: Normal human bronchial epithelial (NHBE) cells; experiment: WST-1 proliferation assay, 24 h exposure to diluted ILs
Description: Normal human bronchial epithelial (NHBE) cells were purchased (Lonza, Walkersville, MD) and cultured using bronchial epithelial cell growth media (BEGM, Clonetics Bullet Kit, Lonza, Walkersville, MD) on 100 mm tissue culture treated Petri dishes (Santa Cruz Biotechnologies, Santa Cruz, CA) coated with 50 μg/mL type I rat tail collagen (BD Biosciences, Bedford, MA). Cells were stored in an incubator with a humidified atmosphere at 37° C. and 5% CO2. Cells were fed two times weekly and passaged via trypsinization. Experimentation was performed in triplicate on cells harvested from passages 3 to 7.
NHBE cells were plated in 96-well tissue culture plates at a concentration of 1.5×10^4 cells/well in a volume of 200 μL and allowed to acclimate overnight. On the day of experimentation, treatment plates were prepared using stock ionic liquid diluted in BEGM and then serially diluted 3-fold for a total of 7 concentrations. The 96-well plates containing cells were then aspirated and the treatments (150 μL/well) were carefully transferred from the prep plate to the cells. Cells were exposed to the ionic liquids for 24 hours. Two hours prior to the end of the exposure time, positive control cell wells were aspirated, and a solution of 1% Triton-100 (150 μL/well) was added.
To assess cellular proliferation, water-soluble tetrazolium (WST-1) reagent (Clontech, Mountain View, CA) was added directly to cells, at a 1:10 dilution of the remaining media volume (7.5 μL of WST-1 reagent was added per 75 μL remaining cell culture media). NHBE cells exposed to media only and 1% Triton in BEGM were included as controls. Ionic liquid controls at the highest concentrations tested were included in wells without cells to rule out ionic liquid/assay reagent interference.

[10] = Solubility in water (physical characterization); conditions: for solubility in water: 25° C.
[11] = read-out: IC50 at 24 h, WST, NHBE cells, 24 h, lower limits where solubility precluded IC50

For `CCCCCCCC/C=C\CCCCCCCC(=O)[O-].CCCCCCCCCCCCCC[P+](CCCCCC)(CCCCCC)CCCCCC` [LANL-19, [PC14H29(C6H13)3][oleate]], the “loss/partitioning of solute to the acceptor solution” value ([1]; 3H-Mannitol) was “no additional loss of solute to the acceptor solution”, the “transport enhancement into/through all layers of the skin” value ([1]; 3H-Mannitol, relative to PBS control) was 5-10 fold and the “skin transport properties” value ([1]; materials in lower right portion of Walden plot) was “best skin transport properties”. It also gave a density ([2]; 25° C.) of 0.882 g/mL, a density ([2]; Table 5) of 0.882 g/mL and a conductivity ([3]; 25° C.) of 0.016 mS/cm. The conductivity ([3]; Table 5) was 0.0162 mS/cm, the viscosity ([4]; 25° C.) was 299 cP and the viscosity ([4]; Table 5) was 300 cP. The ionic strength [5] was 1.24 M, the molarity [5] was 1.15 M and the “log Po/w” value [6] was 1.14. The percent in octanol ([6]; Table 3) was 93 +/− 2%.

For choline hexanoate [LANL-13], the “anti-biofilm efficacy” value [7] was “effective”, the “drug permeation into the SC” value ([1]; 3H-Mannitol, 24 hr, 37° C.) was “inhibited drug permeation into the SC” and the “anti-biofilm efficacy” value [8] was “effective”. The “toxicity to human primary cells” value [9] was “low toxicity”, the density ([2]; 25° C.) was 1.01 g/mL and the density ([2]; Table 5) was 1.01 g/mL. For the same compound, the conductivity ([3]; 25° C.) was 0.816 mS/cm, the conductivity ([3]; Table 5) was 0.816 mS/cm and the conductivity ([3]; text b172) was 0.816 mS/cm. For the same compound, the viscosity ([4]; 25° C.) was 181 cP, the viscosity ([4]; Table 5) was 180.9 cP and the ionic strength [5] was 3.02 M. For the same compound, the molarity [5] was 3.02 M and the percent in octanol ([6]; Table 3) was 51 +/− 2%.

For `CCCCCCn1cc[n+](C)c1.[Cl-]` [LANL-7, 1-Hexyl-3-Methylimidazolium Chloride], the “anti-biofilm efficacy” value [7] was “effective”, the “anti-biofilm efficacy” value [8] was “effective” and the solubility ([10]; water, 25 °C) was 700 mM. For the same compound, the IC50 ([9]; Homo sapiens, NHBE) was 10 mM, the IC50 ([9]; Homo sapiens, NHBE, 24 h, read-out: IC50 at 24 h) was 10 mM and the “toxicity to human primary cells” value ([9]; solubilized in culture medium) was “low toxicity”. The density ([2]; 25° C.) was 1.005 g/mL, the density ([2]; Table 5) was 1.01 g/mL and the conductivity ([3]; 25° C.) was 0.340 mS/cm. The conductivity ([3]; Table 5) was 0.340 mS/cm, the viscosity ([4]; 25° C.) was 680 cP and the viscosity ([4]; Table 5) was 679.5 cP. For the same compound, the ionic strength [5] was 4.96 M, the molarity [5] was 4.96 M and the percent in octanol ([6]; Table 3) was 52 +/− 9%. For the same compound, the logP ([6]; n-octanol/water, octanol/water, Table 3) was 0.04.

With `CCCC[N+]1(C)CCCC1.O=S(=O)([N-]S(=O)(=O)C(F)(F)F)C(F)(F)F` [LANL-1, 1-Butyl-1-methylpyrrolidinium (BMP)—bistriflimide (NTf2)] the “toxicity to human primary cells” value [9] was “low toxicity”, the IC50 [9, 11] was > 2 mM and the density ([2]; 25° C.) was 1.39 g/mL. For the same compound, the density ([2]; Table 5) was 1.39 g/mL, the conductivity ([3]; 25° C.) was 1.99 mS/cm and the conductivity ([3]; Table 5) was 1.99 mS/cm. It also gave a viscosity ([4]; 25° C.) of 72.7 cP, a viscosity ([4]; Table 5) of 72.72 cP and an ionic strength [5] of 3.28 M. For the same compound, the molarity [5] was 3.28 M, the “partitioning into octanol” value [6] was “partitioned poorly into octanol” and the percent in octanol ([6]; Table 3) was 20% +/− 7%. For the same compound, the “percentage in the water phase” value ([6]; starting concentration of 0.2 M in octanol) was 51% and the “percentage not incorporated in octanol or water” value ([6]; starting concentration of 0.2 M in octanol, third phase) was 29%.

With `O=S(=O)(NS(=O)(=O)C(F)(F)F)C(F)(F)F` [LANL-12, choline-NTf2] the IC50 [9, 11] was 1.7 mM.

With `C[N+](C)(C)CCO.O=S(=O)([N-]S(=O)(=O)C(F)(F)F)C(F)(F)F` [LANL-12, choline-NTf2] the solubility in water [10] was 1.7 M, the density ([2]; 25° C.) was 1.5 g/mL and 1.53 g/mL and the density ([2]; Table 5) was 1.54 g/mL. It also gave a conductivity ([3]; 25° C.) of 1.46 mS/cm, a conductivity ([3]; Table 5) of 1.460 mS/cm and a viscosity ([4]; 25° C.) of 125 cP. For the same compound, the viscosity ([4]; Table 5) was 125 cP, the ionic strength [5] was 4.40 M and the molarity [5] was 4.40 M. For the same compound, the percent in octanol ([6]; Table 3) was 67 +/− 9% and the “log Po/w” value ([6]; octanol/water, Table 3) was 0.31.

In the case of `CC(C)=CCC/C(C)=C/C(=O)[O-].CCCCCCCCCCCCCC[P+](CCCCCC)(CCCCCC)CCCCCC` [LANL-22, [PC14H29(C6H13)3][geranate]], the density ([2]; 25° C.) is reported as 0.931 g/mL, the density ([2]; Table 5) is reported as 0.931 g/mL and the conductivity ([3]; 25° C.) is reported as 0.156 mS/cm. It also gave a conductivity ([3]; Table 5) of 0.156 mS/cm, a viscosity ([4]; 25° C.) of 122 cP and a viscosity ([4]; Table 5) of 122.3 cP. For the same compound, the ionic strength [5] was 1.43 M, the molarity [5] was 1.43 M and the “log Po/w” value [6] was 0.86. The percent in octanol ([6]; Table 3) was 88 +/− 6%.

With `NC(N)=O` [LANL-6, urea-choline] the IC50 ([9]; NHBE cells, text b165) was > 10 mM and the IC50 [9, 11] was > 10 mM.

In the case of `CCCCCC(=O)[O-].CCCCCCCCCCCCCC[P+](CCCCCC)(CCCCCC)CCCCCC` [LANL-20, [PC14H29(C6H13)3][hexanoate]], the “solubility in water” value [10] is reported as “trace”, the density ([2]; 25° C.) is reported as 0.912 g/mL and the density ([2]; Table 5) is reported as 0.912 g/mL. It also gave a conductivity ([3]; 25° C.) of 0.488 mS/cm, a conductivity ([3]; Table 5) of 0.488 mS/cm and a viscosity ([4]; 25° C.) of 154 cP. It also gave a viscosity ([4]; Table 5) of 154 cP, an ionic strength [5] of 1.63 M and a molarity [5] of 1.63 M. The percent in octanol ([6]; Table 3) was 65 +/− 14% and the “log Po/w” value ([6]; octanol/water, Table 3) was 0.26.

In the case of `CCCCCCCC/C=C\CCCCCCCC(=O)O.CCCCCCCC/C=C\CCCCCCCC(=O)[O-].C[N+](C)(C)CCO`, the “toxicity to human primary cells” value [9] is reported as “very toxic”, the IC50 ([9]; NHBE cells, text b165) is reported as 0.034 mM and the density ([2]; 25° C.) is reported as 0.98 g/mL. For the same compound, the density ([2]; Table 5) was 0.98 g/mL, the density ([2]; text b173) was 0.98 g/mL and the conductivity ([3]; 25° C.) was 0.087 mS/cm. The conductivity ([3]; Table 5) was 0.0871^b mS/cm, the viscosity ([4]; 25° C.) was 880 cP and the viscosity ([4]; Table 5) was 162.3^b cP. For the same compound, the viscosity ([4]; text b171) was 162 cP, the ionic strength [5] was 1.47 M and the molarity [5] was 1.47 M. The “partitioning into octanol” value [6] was “partitioned well into octanol”, the “percent moving into the octanol layer” value ([6]; after 1 min of agitation) was 95% and the percent in octanol ([6]; Table 3) was 95 +/− 3%.

In the case of choline malonate [LANL-5], the “anti-biofilm efficacy” value [7] is reported as “effective”, the “anti-biofilm efficacy” value [8] is reported as “effective” and the density ([2]; 25° C.) is reported as 1.266 g/mL. It also gave a density ([2]; Table 5) of 1.27 g/mL, a density ([2]; text b173) of 1.27 g/mL and a conductivity ([3]; 25° C.) of 0.429 mS/cm. It also gave a conductivity ([3]; Table 5) of 0.429 mS/cm, a viscosity ([4]; 25° C.) of 920 cP and a viscosity ([4]; Table 5) of 920.1 cP. The ionic strength [5] was 5.20 M and the molarity [5] was 5.20 M.

From US11786597B2, “Ionic liquids for transdermal drug delivery” (priority 2013, dated 2023)
